{"source": "patent US11745001B2", "about": "“Therapeutic bandage” (University of Connecticut, priority 2020, dated 2023)", "from_the_text": "FIG. 4A illustrates a microneedle base 44 showing the hollow channel 50. FIG. 4B illustrates the microneedle base 44 coupled to the rapid-dissolving tips 40, which include tattoo ink. In one embodiment, the therapeutic bandage 10 may be producing the microneedles 26 and then coupling the microneedles 26 to the bandage matrix 30. In some embodiments, the microneedles 26 may be integrally formed with a portion of the bandage matrix 30. The microneedles are produced by forming the base 44, with the microchannel 50, and loading the base […] with the second immunomodulatory compound. The tip 40 is then produced and loaded with the first immunomodulatory compound. The tip 40 is then coupled to the base 44 to seal the microchannel […]. To test the mechanical strength of the microneedles 26, the tips 40 were loaded with insoluble tattoo ink (FIG. 4B). The microneedles 26 were then applied to cultured human skin explants using a 1 Newton application force. […] FIG. 4E illustrates a longitudinal section of explanted human skin showing spacing of microneedle deposition in the dermal layer. The kinetics of drug release were then measured using epifluorescence microscopy and two fluorescent dyes.", "data": [{"smiles": "CCN(CC)c1ccc2c(-c3ccc(S(=O)(=O)O)cc3S(=O)(=O)[O-])c3ccc(=[N+](CC)CC)cc-3oc2c1", "note": "[sulforhodamine B]", "values": [{"measurement": "diffusion radius compared with the tip dye", "result": "approximately equal diffusion radius"}, {"measurement": "release of red fluorescence from the microneedle base", "result": "after about one hour"}, {"measurement": "visibility of dye", "result": "barely visible"}]}]}
